ChEMBL document CHEMBL3875216, “Synthesis of antimicrobial glucosamides as bacterial quorum sensing mechanism inhibitors” (Bioorg Med Chem, 2017)

Key:
[1] = tested on: Escherichia coli; assay: Inhibition of LuxR-dependent quorum sensing activity in Escherichia coli MT102 harboring pJBA132 assessed as inhibition of OHHL-induced GFP expression at 1 mM measured after 8 hrs by fluorescence assay relative to control
[2] = tested on: Escherichia coli; assay: Growth inhibition of Escherichia coli MT102 at 500 uM after 8 hrs relative to control; conditions: MT102, 8 h, read-out: GI
[3] = tested on: Pseudomonas aeruginosa; assay: Growth inhibition of Pseudomonas aeruginosa MH602 at 2 mM after 24 hrs relative to control; conditions: MH602, 24 h, read-out: GI
[4] = tested on: Pseudomonas aeruginosa; assay: Inhibition of LasR-dependent quorum sensing activity in Pseudomonas aeruginosa MH602 harboring GFP-fused […] LasB promoter assessed as inhibition of 3-oxo-dodecanoyl HSL-induced GFP expression at 500 uM measured after 24 hrs by fluorescence assay relative to control
[5] = tested on: Pseudomonas aeruginosa PA14; assay: Inhibition of quorum sensing-regulated biofilm formation in Pseudomonas aeruginosa PA14 at 2 mM after overnight incubation by crystal violet staining based assay relative to control
[6] = tested on: Pseudomonas aeruginosa; assay: Growth inhibition of Pseudomonas aeruginosa MH602 at 500 uM after 24 hrs relative to control; conditions: MH602, 24 h, read-out: GI
[7] = tested on: Escherichia coli; assay: Inhibition of LuxR-dependent quorum sensing activity in Escherichia coli MT102 harboring pJBA132 assessed as inhibition of OHHL-induced GFP expression at 2 mM measured after 8 hrs by fluorescence assay relative to control
[8] = tested on: Pseudomonas aeruginosa PA14; assay: Inhibition of quorum sensing-regulated pyocyanin production in Pseudomonas aeruginosa PA14 at 2 mM after 24 hrs relative to control
[9] = tested on: Escherichia coli; assay: Inhibition of LuxR-dependent quorum sensing activity in Escherichia coli MT102 harboring pJBA132 assessed as inhibition of OHHL-induced GFP expression at 500 uM measured after 8 hrs by fluorescence assay relative to control
[10] = tested on: Pseudomonas aeruginosa; assay: Inhibition of LasR-dependent quorum sensing activity in Pseudomonas aeruginosa MH602 harboring GFP-fused […] LasB promoter assessed as inhibition of 3-oxo-dodecanoyl HSL-induced GFP expression at 2 mM measured after 24 hrs by fluorescence assay relative to control
[11] = tested on: Pseudomonas aeruginosa; assay: Growth inhibition of Pseudomonas aeruginosa MH602 at 1 mM after 24 hrs relative to control; conditions: MH602, 24 h, read-out: GI
[12] = tested on: Escherichia coli; assay: Growth inhibition of Escherichia coli MT102 at 1 mM after 8 hrs relative to control; conditions: MT102, 8 h, read-out: GI
[13] = tested on: Escherichia coli; assay: Growth inhibition of Escherichia coli MT102 at 2 mM after 8 hrs relative to control; conditions: MT102, 8 h, read-out: GI
[14] = tested on: Pseudomonas aeruginosa; assay: Growth inhibition of Pseudomonas aeruginosa MH602 at 500 uM after 8 hrs relative to control; conditions: MH602, 8 h, read-out: GI
[15] = tested on: Pseudomonas aeruginosa; assay: Growth inhibition of Pseudomonas aeruginosa MH602 at 2 mM after 8 hrs relative to control; conditions: MH602, 8 h, read-out: GI
[16] = tested on: Escherichia coli; assay: Growth inhibition of Escherichia coli MT102 at 1 mM after 24 hrs relative to control; conditions: MT102, 24 h, read-out: GI
[17] = tested on: Escherichia coli; assay: Growth inhibition of Escherichia coli MT102 at 2 mM after 24 hrs relative to control; conditions: MT102, 24 h, read-out: GI
[18] = tested on: Pseudomonas aeruginosa; assay: Growth inhibition of Pseudomonas aeruginosa PA14 at 2 mM after 24 hrs relative to control; conditions: 2000 µM
[19] = tested on: Pseudomonas aeruginosa; assay: Inhibition of LasR-dependent quorum sensing activity in Pseudomonas aeruginosa MH602 harboring GFP-fused […] LasB promoter assessed as inhibition of 3-oxo-dodecanoyl HSL-induced GFP expression at 500 uM measured after 8 hrs by fluorescence assay relative to control
[20] = tested on: Pseudomonas aeruginosa; assay: Inhibition of LasR-dependent quorum sensing activity in Pseudomonas aeruginosa MH602 harboring GFP-fused […] LasB promoter assessed as inhibition of 3-oxo-dodecanoyl HSL-induced GFP expression at 1 mM measured after 8 hrs by fluorescence assay relative to control
[21] = tested on: Escherichia coli; assay: Growth inhibition of Escherichia coli MT102 at 500 uM after 24 hrs relative to control; conditions: MT102, 24 h, read-out: GI
[22] = tested on: Pseudomonas aeruginosa; assay: Inhibition of LasR-dependent quorum sensing activity in Pseudomonas aeruginosa MH602 harboring GFP-fused […] LasB promoter assessed as inhibition of 3-oxo-dodecanoyl HSL-induced GFP expression at 2 mM measured after 8 hrs by fluorescence assay relative to control
[23] = tested on: Pseudomonas aeruginosa; assay: Growth inhibition of Pseudomonas aeruginosa MH602 at 1 mM after 8 hrs relative to control; conditions: MH602, 8 h, read-out: GI
[24] = tested on: Escherichia coli; assay: Inhibition of LuxR-dependent quorum sensing activity in Escherichia coli MT102 harboring pJBA132 assessed as inhibition of OHHL-induced GFP expression at 1 mM measured after 24 hrs by fluorescence assay relative to control
[25] = tested on: Escherichia coli; assay: Inhibition of LuxR-dependent quorum sensing activity in Escherichia coli MT102 harboring pJBA132 assessed as inhibition of OHHL-induced GFP expression at 2 mM measured after 24 hrs by fluorescence assay relative to control
[26] = tested on: Pseudomonas aeruginosa; assay: Inhibition of LasR-dependent quorum sensing activity in Pseudomonas aeruginosa MH602 harboring GFP-fused […] LasB promoter assessed as inhibition of 3-oxo-dodecanoyl HSL-induced GFP expression at 1 mM measured after 24 hrs by fluorescence assay relative to control

Row | Compound | inhibition [1] | inhibition at 500 µM [2] | inhibition at 2000 µM [3] | inhibition [5] | inhibition at 500 µM [6] | inhibition [7] | inhibition [9] | inhibition [10] | inhibition at 1000 µM [11] | inhibition at 1000 µM [12] | inhibition at 2000 µM [13] | inhibition at 500 µM [14] | inhibition at 2000 µM [15] | inhibition at 1000 µM [16] | inhibition at 2000 µM [17] | growth inhibition (GI) [18] | inhibition [19] | inhibition [20] | inhibition at 500 µM [21] | inhibition at 1000 µM [23] | other results
1 | CCCCCC(=O)CC(=O)N[C@H]1[C@H](OC(C)=O)O[C@H](COC(C)=O)[C@@H](OC(C)=O)[C@@H]1OC(C)=O | 2.1% | 0% | 0% | 19.5% | 4.2% | 7.9% | 7.7% | 2.5% | 0% | 2.3% | 9.2% | 0% | 0% | 13.2% | 20.8% | Non-Toxic | 4.9% | 8.9% | 2.3% | 0% | inhibition [4]: 3.3%; inhibition [8]: 1.9%; inhibition [22]: 18.9%
2 | O=C(Cc1ccc(Br)cc1)N[C@@H]1[C@@H](O)[C@H](O)[C@@H](CO)O[C@H]1O | 6.5% | 0% | 4% | 17.3% | 1.8% | 15.2% | 11.9% | – | 1.6% | 0% | 0% | 0% | 0% | 5.9% | 6.1% | Non-Toxic | 6.6% | 14.3% | 3% | 1.8% | inhibition [4]: 2.4%; inhibition [8]: 8.6%; inhibition [24]: 4.6%; inhibition [25]: 1.1%; inhibition [22]: 15.3%
3 | CCCCCCCCCC(=O)N[C@H]1[C@H](OC(C)=O)O[C@H](COC(C)=O)[C@@H](OC(C)=O)[C@@H]1OC(C)=O | – | 12.8% | 0% | 46.9% | 0% | 48.1% | – | 17.2% | 1.2% | 0% | 30.6% | 0% | 10.2% | 12.6% | 15.9% | Non-Toxic | 10.2% | 7% | 11.1% | 7.8% | inhibition [24]: 5.1%; inhibition [25]: 35.5%; inhibition [26]: 7.8%
4 | O=C(Cc1ccc(F)cc1)N[C@@H]1[C@@H](O)[C@H](O)[C@@H](CO)O[C@H]1O | 3.6% | 0% | 0% | 5.1% | 1.4% | 12.6% | 2.4% | 2.9% | 3% | 0% | 0% | 0% | 0% | 8.8% | 15.8% | Non-Toxic | 9.2% | 29% | 19.4% | 0% | inhibition [8]: 6.6%; inhibition [24]: 2%; inhibition [22]: 31.3%
5 | CC(=O)OC[C@H]1O[C@@H](OC(C)=O)[C@H](NC(=O)Cc2ccc(F)cc2)[C@@H](OC(C)=O)[C@@H]1OC(C)=O | 14% | 0% | 0% | 45.6% | 0% | 17.1% | 14.1% | 5.7% | 0% | 0% | 0% | 0% | 0% | 9.4% | 0% | Non-Toxic | 5.9% | 7.3% | 11.8% | 0% | inhibition [24]: 1.3%; inhibition [25]: 61.1%; inhibition [26]: 4.3%; inhibition [22]: 7.4%
